Experiments:
Gαq/Gα11 = assay: Immunoprecipitation of Gαq/Gα11 from 32P-labeled platelets; format: cell-based, human; details: 32P-labeled platelets treated with compound
Text: (§1) In separate immunoprecipitation experiments, we also examined whether Gαq/Gα11 or its effector PLCβ, were phosphorylated in response to NO or cGMP. Anti-Gαq/Gα11 antibodies were obtained from D. Manning (University of Pennsylvania; Woolkalis, M. J. et al., 1986, J. Biol. Chem. 261:3408-3413).

PLCβ = PLCβ phosphorylation in platelets (PLCβ antibodies); format: cell-based, human; details: monoclonal and polyclonal PLCβ antibodies
Text: as §1

thrombin receptor = assay: Thrombin receptor-mediated vascular smooth muscle cell activation; format: cell-based; details: FIG. 6A-6C; effect reversed by inhibition of G kinase
Text: The activation of vascular smooth muscle cells by thrombin receptor is inhibited by nitric oxide (FIG. 6A). […] This effect is reversed by inhibition by G kinase.

TXA2 receptor = biological target: T1, TXA2 receptor (Homo sapiens, UniProt P21731); assay: In vivo phosphorylation of TXA2 receptors in 32P-labeled HEL cells; format: cell-based
T1 construct: HEL cells, which contain high densities of the platelet TXA2 receptor; endogenous in cells; host or cells: HEL cells
T1 sequence (P21731 1-343): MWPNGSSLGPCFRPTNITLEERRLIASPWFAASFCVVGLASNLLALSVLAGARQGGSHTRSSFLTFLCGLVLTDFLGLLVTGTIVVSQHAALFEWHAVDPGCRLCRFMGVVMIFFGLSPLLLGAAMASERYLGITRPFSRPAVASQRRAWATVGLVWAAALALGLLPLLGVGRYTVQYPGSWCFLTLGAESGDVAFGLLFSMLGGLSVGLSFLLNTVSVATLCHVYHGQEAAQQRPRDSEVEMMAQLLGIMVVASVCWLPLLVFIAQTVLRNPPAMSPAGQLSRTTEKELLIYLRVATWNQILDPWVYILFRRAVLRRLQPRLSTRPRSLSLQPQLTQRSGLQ
Method: To examine whether cGMP can lead to phosphorylation of TXA2 receptors in vivo, studies were performed using HEL cells, which contain high densities of the platelet TXA2 receptor (Allan, C. J. et al., 1996, J. Pharmacol. Exp. Ther. 277:1132-1139; Mayeux, P. R. et al., 1989, J. Pharmacol. Exp. Ther. 250:923-927).
HEL cells were labeled with ^32P (Mendelsohn, M. E. et al., 1991, supra) and then exposed to buffer alone (10 minutes), U46619 (5 μM, 10 minutes), or 8-Br-cGMP (10 mM, 15 minutes). Reactions were terminated by addition of ice-cold TEB buffer: 20 mM Tris-Cl, pH 7.4, 5 mM EGTA, 0.128 mg/ml phenylmethylsulfonyl fluoride, 0.15 mg/ml benzamidine Cl, followed by preparation of solubilized TXA2 receptor fractions in CHAPS buffer: 20 mM Tris-Cl, pH 7.4, 5 mM EGTA, 25% glycerol, 0.128 mg/ml phenylmethylsulfonyl fluoride, 0.15 mg/ml benzamidine Cl, 10 mM CHAPS (Schror, K. et al., 1995, Biochem. Pharmacol. 49: 921-927). TXA2 receptor fractions were then purified on and eluted from TXA2 antibody affinity beads, resolved by SDS-PAGE, and transferred to nitrocellulose. Receptor was quantified by immunoblotting and phosphorylation was quantitated by PhosphorImager analysis (Mendelsohn, M. E. et al., 1991, supra). […]

[1] = system: TXA2-specific GTPase in human platelet membranes; assay: TXA2 receptor-coupled GTPase activity in human platelet membranes; format: biochemical
Method: Platelets were prepared from plateletpheresis units as described (Benka, M. L. et al., 1995, supra; Zhu, Y. et al., 1994, supra).
TXA2-stimulated GTPase activity was measured in platelet membranes by initiating reactions by the addition of 20-45 μg of platelet membranes to tubes in the absence or presence of 10 μM of the thromboxane analog, U46619, (Benka, M. L. et al., The MBL Physiology Course, Busa, W. B. & Mendelsohn, M. E., 1995, FEBS Lett. 363: 49-52). The final reaction mixture (total volume=100 μl) contained 0.4 μM GTP, including 0.6-0.9 μCi of [γ-^32P]GTP(1.5-2×10^6 dpm), as well as 100 mM NaCl, 0.1 mM EGTA, 2 mM MgCl2, 1 mM dithiothreitol, 0.1 mM ATP, 5 mM phosphocreatine, 100 units/ml creatine phosphokinase, 0.2% bovine serum albumin, 50 mM triethanolamine HCl, pH 7.4, and indicated concentrations of agonist.
[…] GTPase reactions were terminated with 5% activated charcoal/20 mM phosphoric acid, and high affinity GTPase activity was measured and calculated (Shenker, A. et al., 1991, J. Biol. Chem. 268: 26011-26017; Benka et al., supra).

SMILES	Gαq/Gα11 G protein phosphorylation (Gαq/Gα11)	phosphorylation of PLCβ (PLCβ)	inhibition of thrombin receptor-mediated vascular smooth muscle cell activation (thrombin receptor)	also measured
CC(=O)N[C@@H](CSN=O)C(=O)O [S-nitroso-N-acetylcysteine]	did not demonstrate any significant G protein phosphorylation			
[N]=O [nitric oxide]		no increase in phosphorylation of PLCβ	inhibited	
CCCCC[C@H](O)/C=C/[C@@H]1[C@@H](C/C=C\CCCC(=O)O)[C@H]2CO[C@@H]1C2 [U46619]				TXA2 receptor phosphorylation (TXA2 receptor; 5 μM, 10 minutes): phosphorylated; average increase in GTPase activity (stimulation of TXA2-specific GTPase) ([1]; untreated platelet membranes, 10 μM U46619, n=three experiments in triplicate): 5.5±1.3 pmol of 32P/min/mg platelet pr
Nc1nc2c(ncn2[C@@H]2O[C@@H]3COP(=O)(O)O[C@H]3[C@H]2O)c(=O)[nH]1 [cyclic GMP]		no increase in phosphorylation of PLCβ	inhibition	
Nc1nc2c(nc(Br)n2[C@@H]2O[C@@H]3COP(=O)(O)O[C@H]3[C@H]2O)c(=O)[nH]1 [8-Br-cGMP, 8-bromo-cyclic GMP]	did not demonstrate any significant G protein phosphorylation			TXA2 receptor phosphorylation (TXA2 receptor; 10 mM, 15 minutes): clear and significant increases in TXA2 receptor phosphorylation to a level comparable with agonist-induced phosphorylation; IC50 ([1]; platelet membranes pretreated 10 minutes at room temperature before U46619 stimulation, n=3 experiments in triplicate, read-out: mean IC50, inhibition of U46619-stimulated GTPase activity): 75 nM; decrease of basal platelet membrane GTPase activity ([1]; pretreatment with 500 μm 8-Br-cGMP, n=4): 8±9%

Reference: patent publication US6352833B1, “Methods for discovery of vasoactive compounds for the nitric oxide-cyclic GMP signal pathway” (priority 1999, dated 2002)
